Assay [1] has as its target Tyrosine-protein kinase CSK (Homo sapiens) (UniProt P41240). The assay can be described thus: Inhibition of N-terminal GST-fused full length human CSK (1 to 450 residues) expressed in baculovirus-infected Sf21 cells using Srctide as substrate at 1 uM in presence of ATP by Mobility shift assay.
Assay [2] is described as follows: Inhibition of N-terminal GST-fused full length human MGC42105 (1 to 436 residues) expressed in baculovirus expression system using CHKtide as substrate at 1 uM in presence of ATP by Mobility shift assay. As to conditions: condition cancer.
Assay [3] deals with cAMP-dependent protein kinase catalytic subunit PRKX (Homo sapiens) (UniProt P51817). The assay can be described thus: Inhibition of N-terminal GST-fused full length human PRKX (1 to 358 residues) expressed in baculovirus expression system using Kemptide as substrate at 1 uM in presence of ATP by Mobility shift assay.
Assay [4] deals with Citron Rho-interacting kinase (Homo sapiens) (UniProt O14578). As to the kind of experiment: Inhibition of N-terminal GST-fused human CRIK catalytic domain (1 to 449 residues) expressed in baculovirus expression system using Histone H3 peptide as substrate at 1 uM in presence of ATP by Mobility shift assay.
The target of assay [5] is Leukocyte tyrosine kinase receptor (Homo sapiens) (UniProt P29376). As to the kind of experiment: Inhibition of N-terminal GST-tagged human LTK catalytic domain (498 to 796 residues) expressed in baculovirus-infected Sf21 cells using Srctide as substrate at 1 uM in presence of ATP by Mobility shift assay.
Sequence of Leukocyte tyrosine kinase receptor (Homo sapiens) (P29376 whole entry, the tested form may be a part, canonical isoform): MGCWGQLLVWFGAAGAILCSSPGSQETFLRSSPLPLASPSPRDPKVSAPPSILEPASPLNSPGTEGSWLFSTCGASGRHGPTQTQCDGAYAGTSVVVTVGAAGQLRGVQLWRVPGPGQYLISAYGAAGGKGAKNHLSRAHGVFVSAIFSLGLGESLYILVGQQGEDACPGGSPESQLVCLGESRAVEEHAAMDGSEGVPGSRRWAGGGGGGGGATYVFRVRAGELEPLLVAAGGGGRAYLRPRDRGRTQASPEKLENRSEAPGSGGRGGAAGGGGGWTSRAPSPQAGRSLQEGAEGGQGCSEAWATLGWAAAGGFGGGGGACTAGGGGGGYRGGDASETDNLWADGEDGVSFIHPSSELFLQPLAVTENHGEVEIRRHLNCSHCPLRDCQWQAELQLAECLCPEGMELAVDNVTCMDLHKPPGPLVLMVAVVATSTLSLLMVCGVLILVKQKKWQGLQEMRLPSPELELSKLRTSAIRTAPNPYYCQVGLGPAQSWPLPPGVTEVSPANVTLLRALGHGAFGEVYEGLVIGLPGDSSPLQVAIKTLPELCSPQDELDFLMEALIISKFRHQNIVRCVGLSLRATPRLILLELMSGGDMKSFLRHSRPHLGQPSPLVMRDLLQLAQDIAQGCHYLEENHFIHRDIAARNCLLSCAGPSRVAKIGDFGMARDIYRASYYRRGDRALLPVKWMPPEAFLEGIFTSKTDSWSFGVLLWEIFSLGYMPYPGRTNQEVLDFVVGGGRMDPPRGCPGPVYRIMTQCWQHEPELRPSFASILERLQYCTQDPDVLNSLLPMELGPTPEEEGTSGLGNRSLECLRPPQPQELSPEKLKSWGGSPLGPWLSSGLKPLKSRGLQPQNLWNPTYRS
Assay [6] addresses Casein kinase I isoform epsilon (Homo sapiens) (UniProt P49674). As to the kind of experiment: Inhibition of N-terminal GST-fused human CK1-epsilon catalytic domain (1 to 348 residues) expressed in baculovirus expression system using CKtide as substrate at 1 uM in presence of ATP by Mobility shift assay.
The target of assay [7] is AMPK alpha2/beta1/gamma1 (Homo sapiens) (UniProt P54646+P54619+Q9Y478). As to the kind of experiment: Inhibition of N-terminal GST-tagged full-length human AMPK alpha2 (1 to 552 residues)/N-terminal GST-tagged human AMPK beta1 (1 to 270 residues)/N-terminal GST-tagged human AMPK gamma1 (1 to 331 residues) expressed in baculovirus-infected Sf21 cells using SAMS peptide as substrate at 1 uM in presence of ATP by Mobility shift assay.
Sequence of AMPK alpha2/beta1/gamma1 (Homo sapiens) (P54619 whole entry partner, the tested form may be a part): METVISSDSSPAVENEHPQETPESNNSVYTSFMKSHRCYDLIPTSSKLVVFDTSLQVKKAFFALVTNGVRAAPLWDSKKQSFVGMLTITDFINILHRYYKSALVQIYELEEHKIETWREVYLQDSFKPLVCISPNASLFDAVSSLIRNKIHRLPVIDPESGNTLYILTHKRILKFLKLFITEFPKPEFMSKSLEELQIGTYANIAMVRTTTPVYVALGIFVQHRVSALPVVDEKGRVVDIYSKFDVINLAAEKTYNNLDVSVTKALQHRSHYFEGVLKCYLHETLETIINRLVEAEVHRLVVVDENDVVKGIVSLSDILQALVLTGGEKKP
Sequence of AMPK alpha2/beta1/gamma1 (Homo sapiens) (P54646 whole entry, the tested form may be a part): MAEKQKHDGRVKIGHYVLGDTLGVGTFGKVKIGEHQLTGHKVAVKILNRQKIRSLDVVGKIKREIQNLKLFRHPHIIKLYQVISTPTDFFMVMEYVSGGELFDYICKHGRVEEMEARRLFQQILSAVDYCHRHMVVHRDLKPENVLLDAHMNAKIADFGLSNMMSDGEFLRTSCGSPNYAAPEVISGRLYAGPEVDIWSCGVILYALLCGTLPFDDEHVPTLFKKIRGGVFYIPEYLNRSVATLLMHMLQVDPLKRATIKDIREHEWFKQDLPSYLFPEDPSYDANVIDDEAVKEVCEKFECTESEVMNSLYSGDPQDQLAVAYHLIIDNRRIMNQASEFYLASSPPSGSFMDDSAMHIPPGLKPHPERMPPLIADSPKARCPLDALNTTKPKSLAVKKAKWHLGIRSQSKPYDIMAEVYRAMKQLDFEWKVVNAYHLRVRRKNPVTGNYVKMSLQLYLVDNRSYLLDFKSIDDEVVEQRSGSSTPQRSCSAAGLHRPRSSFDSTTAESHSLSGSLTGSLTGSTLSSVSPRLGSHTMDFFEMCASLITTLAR
Sequence of AMPK alpha2/beta1/gamma1 (Homo sapiens) (Q9Y478 2-270 partner limits assumed): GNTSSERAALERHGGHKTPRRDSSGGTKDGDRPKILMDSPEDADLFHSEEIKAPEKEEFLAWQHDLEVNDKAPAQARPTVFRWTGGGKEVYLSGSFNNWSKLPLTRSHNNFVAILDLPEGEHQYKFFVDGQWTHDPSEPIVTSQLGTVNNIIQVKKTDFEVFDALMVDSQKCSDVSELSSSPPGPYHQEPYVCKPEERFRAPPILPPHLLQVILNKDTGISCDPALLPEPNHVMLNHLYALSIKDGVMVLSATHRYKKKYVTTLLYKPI

Assay [8] deals with Serine/threonine-protein kinase pim-3 (Homo sapiens) (UniProt Q86V86). As to the kind of experiment: Inhibition of N-terminal GST-tagged full length human PIM3 (1 to 326 residues) expressed in baculovirus expression system using S6K2 peptide as substrate at 1 uM in presence of ATP by Mobility shift assay.
Assay [9] has as its target Serine/threonine-protein kinase MARK1 (Homo sapiens) (UniProt Q9P0L2). The assay can be described thus: Inhibition of N-terminal GST-fused full length human MARK1 (1 to 795 residues) expressed in baculovirus expression system using CHKtide as substrate at 1 uM in presence of ATP by Mobility shift assay.
The target of assay [10] is Insulin receptor (Homo sapiens) (UniProt P06213). As to the kind of experiment: Inhibition of N-terminal fused human INSR catalytic domain (1005 to 1310 residues) expressed in baculovirus-infected Sf21 cells using IRS1 as substrate at 1 uM in presence of ATP by Mobility shift assay.
Assay [11] has as its target Mitogen-activated protein kinase 9 (Homo sapiens) (UniProt P45984). The assay can be described thus: Inhibition of N-terminal GST-fused human JNK2 catalytic domain (1 to 364 residues) expressed in Escherichia coli expression system using Modified ERKtide as substrate at 1 uM in presence of ATP by Mobility shift assay.
In assay [12] the target is Ephrin type-A receptor 3 (Homo sapiens) (UniProt P29320). The assay can be described thus: Inhibition of N-terminal GST-fused human EPHA3 cytoplasmic domain (579 to 983 residues) expressed in baculovirus-infected Sf21 cells using Blk/Lyntide as substrate at 1 uM in presence of ATP by Mobility shift assay.
Sequence of Ephrin type-A receptor 3 (Homo sapiens) (P29320 whole entry, the tested form may be a part): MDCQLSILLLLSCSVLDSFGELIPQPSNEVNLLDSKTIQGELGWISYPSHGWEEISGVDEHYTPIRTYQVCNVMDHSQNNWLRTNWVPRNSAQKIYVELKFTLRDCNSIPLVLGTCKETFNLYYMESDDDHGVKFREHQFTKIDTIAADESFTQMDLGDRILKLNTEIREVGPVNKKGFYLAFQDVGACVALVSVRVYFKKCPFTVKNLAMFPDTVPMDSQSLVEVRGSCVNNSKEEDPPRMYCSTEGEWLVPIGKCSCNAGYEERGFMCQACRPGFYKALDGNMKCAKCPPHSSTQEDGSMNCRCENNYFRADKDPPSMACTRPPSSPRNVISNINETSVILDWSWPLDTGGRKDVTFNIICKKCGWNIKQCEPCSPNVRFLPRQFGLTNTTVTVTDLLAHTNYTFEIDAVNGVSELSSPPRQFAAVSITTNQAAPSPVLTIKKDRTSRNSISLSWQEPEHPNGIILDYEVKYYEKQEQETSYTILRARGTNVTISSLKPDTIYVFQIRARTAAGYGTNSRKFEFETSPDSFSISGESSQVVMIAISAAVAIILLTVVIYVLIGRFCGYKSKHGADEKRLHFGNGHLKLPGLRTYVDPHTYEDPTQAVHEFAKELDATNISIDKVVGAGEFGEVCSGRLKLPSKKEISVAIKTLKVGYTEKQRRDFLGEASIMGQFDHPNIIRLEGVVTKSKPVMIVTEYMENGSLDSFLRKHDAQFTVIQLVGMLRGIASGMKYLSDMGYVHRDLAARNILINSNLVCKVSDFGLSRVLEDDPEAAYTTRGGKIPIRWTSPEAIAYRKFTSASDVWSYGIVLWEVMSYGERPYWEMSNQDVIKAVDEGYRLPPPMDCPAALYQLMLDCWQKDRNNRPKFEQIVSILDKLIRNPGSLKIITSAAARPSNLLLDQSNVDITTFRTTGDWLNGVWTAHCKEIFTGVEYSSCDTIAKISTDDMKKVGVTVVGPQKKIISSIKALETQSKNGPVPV
The target of assay [13] is Dual specificity tyrosine-phosphorylation-regulated kinase 1B (Homo sapiens) (UniProt Q9Y463). The assay can be described thus: Inhibition of N-terminal GST-fused full length human DYRK1B (1 to 629 residues) expressed in baculovirus expression system using DYRKtide-F as substrate at 1 uM in presence of ATP by Mobility shift assay.
The target of assay [14] is Serine/threonine-protein kinase Sgk1 (Homo sapiens) (UniProt O00141). The assay can be described thus: Inhibition of N-terminal GST-tagged truncated human SGK (61 to 431 residues) expressed in baculovirus expression system using SGKtide as substrate at 1 uM in presence of ATP by Mobility shift assay.
Assay [15] deals with Serine/threonine-protein kinase Chk2 (Homo sapiens) (UniProt O96017). As to the kind of experiment: Inhibition of N-terminal GST-fused full length human CHK2 (1 to 543 residues) expressed in baculovirus expression system using CHKtide as substrate at 1 uM in presence of ATP by Mobility shift assay.
For assay [16], the target named is Ribosomal protein S6 kinase beta-1 (Homo sapiens) (UniProt P23443). The assay can be described thus: Inhibition of N-terminal GST-fused human p70S6K catalytic domain (1 to 421 residues) expressed in baculovirus expression system using S6K2 peptide as substrate at 1 uM in presence of ATP by Mobility shift assay.
The target of assay [17] is Ribosomal protein S6 kinase alpha-3 (Homo sapiens) (UniProt P51812). As to the kind of experiment: Inhibition of N-terminal GST-fused human full length RSK2 (1 to 740 residues) expressed in baculovirus expression system using S6K peptide(N-FL) as substrate at 1 uM in presence of ATP by Mobility shift assay.
The target in assay [18] is Casein kinase I isoform gamma-2 (Homo sapiens) (UniProt P78368). As to the kind of experiment: Inhibition of N-terminal GST-fused full length human CK1gamma2 (1 to 415 residues) expressed in baculovirus expression system using CKtide as substrate at 1 uM in presence of ATP by Mobility shift assay.
Sequence of Casein kinase I isoform gamma-2 (Homo sapiens) (P78368 whole entry, looked up, the tested form may be a part, canonical isoform): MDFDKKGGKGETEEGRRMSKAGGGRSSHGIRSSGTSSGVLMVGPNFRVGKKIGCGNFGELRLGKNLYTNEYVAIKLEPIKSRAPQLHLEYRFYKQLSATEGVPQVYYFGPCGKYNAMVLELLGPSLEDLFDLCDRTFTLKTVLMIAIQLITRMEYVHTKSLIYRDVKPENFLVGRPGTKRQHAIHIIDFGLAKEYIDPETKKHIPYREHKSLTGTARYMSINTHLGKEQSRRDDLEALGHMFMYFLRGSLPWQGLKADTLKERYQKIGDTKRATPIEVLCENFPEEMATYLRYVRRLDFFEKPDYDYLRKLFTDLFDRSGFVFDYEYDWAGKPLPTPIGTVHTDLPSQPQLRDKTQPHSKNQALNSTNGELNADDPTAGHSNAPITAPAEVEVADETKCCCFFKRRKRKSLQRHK
In assay [19] the target is NUAK family SNF1-like kinase 1 (Homo sapiens) (UniProt O60285). The assay can be described thus: Inhibition of N-terminal GST-fused full length human Nuak1 (1 to 661 residues) expressed in baculovirus expression system using CHKtide as substrate at 1 uM in presence of ATP by Mobility shift assay.
Sequence of NUAK family SNF1-like kinase 1 (Homo sapiens) (O60285 whole entry, the tested form may be a part): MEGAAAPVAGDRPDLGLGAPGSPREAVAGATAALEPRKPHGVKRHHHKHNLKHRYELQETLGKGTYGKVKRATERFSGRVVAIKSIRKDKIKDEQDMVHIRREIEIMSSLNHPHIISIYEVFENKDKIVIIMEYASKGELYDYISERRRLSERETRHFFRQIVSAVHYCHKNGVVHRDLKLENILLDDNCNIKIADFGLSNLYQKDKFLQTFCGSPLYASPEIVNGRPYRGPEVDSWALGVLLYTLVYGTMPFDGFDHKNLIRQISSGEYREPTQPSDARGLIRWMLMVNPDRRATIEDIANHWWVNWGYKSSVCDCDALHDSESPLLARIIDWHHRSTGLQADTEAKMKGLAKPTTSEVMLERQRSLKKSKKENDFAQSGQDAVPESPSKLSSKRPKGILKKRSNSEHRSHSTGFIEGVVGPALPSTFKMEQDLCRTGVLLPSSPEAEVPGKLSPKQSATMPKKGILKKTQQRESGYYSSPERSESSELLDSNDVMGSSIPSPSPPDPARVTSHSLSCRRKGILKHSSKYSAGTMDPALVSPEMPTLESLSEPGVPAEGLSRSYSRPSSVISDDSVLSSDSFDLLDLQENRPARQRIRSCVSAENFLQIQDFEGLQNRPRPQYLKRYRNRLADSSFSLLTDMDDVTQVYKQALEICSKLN
The target of assay [20] is Dual specificity tyrosine-phosphorylation-regulated kinase 1A (Homo sapiens) (UniProt Q13627). The assay can be described thus: Inhibition of N-terminal GST-fused full length human DYRK1A (1 to 763 residues) expressed in baculovirus expression system using DYRKtide-F as substrate at 1 uM in presence of ATP by Mobility shift assay.
In assay [21] the target is Casein kinase I isoform alpha (Homo sapiens) (UniProt P48729). As to the kind of experiment: Inhibition of N-terminal GST-fused full length human CK1alpha (1 to 337 residues) expressed in baculovirus expression system using CKtide as substrate at 1 uM in presence of ATP by Mobility shift assay.
Sequence of Casein kinase I isoform alpha (Homo sapiens) (P48729 2-337 limits assumed): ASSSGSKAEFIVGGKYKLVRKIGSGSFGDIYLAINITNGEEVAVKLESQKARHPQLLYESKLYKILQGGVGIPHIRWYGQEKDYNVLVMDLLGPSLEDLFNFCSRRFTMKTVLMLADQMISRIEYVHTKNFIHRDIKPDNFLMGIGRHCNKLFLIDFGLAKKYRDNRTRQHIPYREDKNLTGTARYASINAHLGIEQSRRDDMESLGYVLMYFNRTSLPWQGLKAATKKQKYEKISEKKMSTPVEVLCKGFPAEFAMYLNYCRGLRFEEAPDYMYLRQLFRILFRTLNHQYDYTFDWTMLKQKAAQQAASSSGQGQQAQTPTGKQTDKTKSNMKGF
For assay [22], the target named is Ephrin type-A receptor 8 (Homo sapiens) (UniProt P29322). The assay can be described thus: Inhibition of N-terminal GST-fused human EPHA8 catalytic domain (571 to 924 residues) expressed in baculovirus-infected Sf21 cells using Blk/Lyntide as substrate at 1 uM in presence of ATP by Mobility shift assay.

These results are taken from ChEMBL document CHEMBL5647694, “Novel orally bioavailable EZH1/2 dual inhibitors with greater antitumor efficacy than an EZH2 selective inhibitor” (Cancer Sci, 2017).

Sequence of Mitogen-activated protein kinase 9 (Homo sapiens) (P45984 whole entry, looked up, the tested form may be a part): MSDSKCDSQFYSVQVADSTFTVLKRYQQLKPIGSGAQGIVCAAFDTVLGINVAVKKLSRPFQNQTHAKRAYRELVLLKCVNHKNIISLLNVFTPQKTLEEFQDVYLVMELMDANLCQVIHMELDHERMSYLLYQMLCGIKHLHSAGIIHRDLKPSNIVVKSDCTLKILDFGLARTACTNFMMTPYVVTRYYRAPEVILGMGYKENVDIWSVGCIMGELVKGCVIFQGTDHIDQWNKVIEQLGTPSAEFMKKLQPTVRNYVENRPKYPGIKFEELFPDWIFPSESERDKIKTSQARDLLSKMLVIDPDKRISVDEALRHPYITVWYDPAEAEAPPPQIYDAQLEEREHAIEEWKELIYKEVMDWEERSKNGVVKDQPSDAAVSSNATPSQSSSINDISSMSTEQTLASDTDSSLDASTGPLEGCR

The inhibition is the drop in the measured response relative to a control, in per cent. Regarding `Cc1cc(C)c(CNC(=O)c2cc(Br)c3c(c2C)O[C@@](C)([C@H]2CC[C@H](N(C)C)CC2)O3)c(=O)[nH]1`, the inhibition was -0.5% in assay [1]; -0.6% in [3]; -7.4% in [4]; -3.2% in [5]; 1.5% in [6]; -1.2% in assay [7]. Also, the inhibition in assay [8] was 5.7%; in [9], -4.5%; in assay [10], 4.8%; in [11], -4%; in [12] it was -8.6%; in [13], 2.7%. Besides, the inhibition in assay [14] is -3%; in assay [15], 0.7%; in assay [16], 4.3%; in assay [17], -4%; in [18], -2.8%; in assay [19], -1.7%. The inhibition in assay [20] is -8.2%; in assay [21], 5.2%; in [22] it was -7%. Further, the inhibition at 1 µM in assay [2] was -1.7%.
Regarding `Cc1cc(C)c(CNC(=O)c2cc(Cl)c3c(c2C)O[C@@](C)([C@H]2CC[C@H](N(C)C)CC2)O3)c(=O)[nH]1` [VALEMETOSTAT], the inhibition was -5.9% in [1]; -1.9% in [3]; -5% in assay [4]; 0.1% in assay [5]; -2.2% in assay [6]; -0.7% in assay [7]. The inhibition in assay [8] is 5.9%; in assay [9] it was -7.1%; in assay [10], 0.1%; in [11], -5%; in [12], -4.8%; in assay [13], -9.8%. The inhibition in [14] was -4.2%; in assay [15], -2.2%; in assay [16], 1.5%; in assay [17] it was -0.5%; in assay [18], -5.8%; in assay [19], 3%. In addition, the inhibition in assay [20] was -3.4%; in assay [21] it was 5.2%; in assay [22], -5.3%. Moreover, the inhibition at 1 µM in assay [2] is -0.3%.
